Measurements as given in patent US20230212122A1, “MITOCHONDRIAL TARGETING COMPOUNDS FOR THE TREATMENT OF ASSOCIATED DISEASES” (The Regents of the University of Michigan, priority 2020, published 2023).

System: UM16 cell line
Experiment: GSEA of Bru-seq data (hallmark, KEGG, GO pathways, transcription factors)
Assay type: cell-based
Details: 4 hours
Description: Consistent with this observation, there are also massive metabolite pathways influenced including starch and sucrose metabolism, glycolysis and gluconeogenesis, purine metabolism, pyrimidine metabolism, N-glycan biosynthesis, etc.

## CCOC(=O)[C@@H]1CCCN(S(=O)(=O)c2ccc(S(=O)(=O)N(CC)CC)cc2)C1 [DX2-201, ethyl (R)-1-((4-(N,N-diethylsulfamoyl)phenyl)sulfonyl)piperidine-3-carboxylate]
5 pM
  ES KEGG_AMINOACYL_TRNA_BIOSYNTHESIS: −0.4260
  ES KEGG_DNA_REPLICATION: −0.5795
  ES KEGG_NUCLEOTIDE_EXCISION_REPAIR: −0.4603
  ES KEGG_N_GLYCAN_BIOSYNTHESIS: −0.5360
  ES KEGG_OXIDATIVE_PHOSPHORYLATION: −0.4451
  ES KEGG_PARKINSONS_DISEASE: −0.4446
  ES KEGG_PROTEASOME: −0.5628
  ES KEGG_PURINE_METABOLISM: −0.4914
  ES KEGG_PYRIMIDINE_METABOLISM: −0.4987
  ES KEGG_RNA_POLYMERASE: −0.6348
  ES KEGG_SPLICEOSOME: −0.4510
  NES KEGG_ALZHEIMERS_DISEASE: −1.6021
  NES KEGG_AMINOACYL_TRNA_BIOSYNTHESIS: −1.4417
  NES KEGG_DNA_REPLICATION: −1.9358
  NES KEGG_HUNTINGTONS_DISEASE: −1.7040
  NES KEGG_MISMATCH_REPAIR: −1.8751
  NES KEGG_NUCLEOTIDE_EXCISION_REPAIR: −1.5835
  NES KEGG_N_GLYCAN_BIOSYNTHESIS: −1.8440
  NES KEGG_OXIDATIVE_PHOSPHORYLATION: −1.7650
  NES KEGG_PARKINSONS_DISEASE: −1.7382
  NES KEGG_PROTEASOME: −1.9164
  NES KEGG_PURINE_METABOLISM: −2.0380
  NES KEGG_PYRIMIDINE_METABOLISM: −1.9279
  NES KEGG_SPLICEOSOME: −1.8728
5 μM
  ES GO_ADP_METABOLIC_PROCESS: 0.6343
  ES GO_ATP_GENERATION_FROM_ADP: 0.6848
  ES GO_GLUCOSE_CATABOLIC_PROCESS: 0.7209
  ES GO_HEXOSE_CATABOLIC_PROCESS: 0.6548
  ES GO_MONOSACCHARIDE_CATABOLIC_PROCESS: 0.5791
  ES GO_NADH_METABOLIC_PROCESS: 0.6704
  ES GO_NEGATIVE_REGULATION_OF_FAT_CELL_DIFFERENTIATION: 0.6098
  ES GO_NUCLEOTIDE_PHOSPHORYLATION: 0.5920
  ES GO_PYRUVATE_METABOLIC_PROCESS: 0.6035
  ES GO_RESPONSE_TO_OXYGEN_LEVELS: 0.4230
  ES GO_RIBONUCLEOSIDE_DIPHOSPHATE_METABOLIC_PROCESS: 0.5746
  ES HALLMARK_ALLOGRAFT_REJECTION: 0.2962
  ES HALLMARK_ANDROGEN_RESPONSE: 0.3155
  ES HALLMARK_ANGIOGENESIS: −0.5078
  ES HALLMARK_APOPTOSIS: 0.3812
  ES HALLMARK_BILE_ACID_METABOLISM: 0.3249
  ES HALLMARK_CHOLESTEROL_HOMEOSTASIS: 0.4969
  ES HALLMARK_DNA_REPAIR: −0.4085
  ES HALLMARK_E2F_TARGETS: −0.3804
  ES HALLMARK_ESTROGEN_RESPONSE_LATE: 0.3437
  ES HALLMARK_FATTY_ACID_METABOLISM: 0.2942
  ES HALLMARK_GLYCOLYSIS: 0.4109
  ES HALLMARK_HEDGEHOG_SIGNALING: 0.4848
  ES HALLMARK_HEME_METABOLISM: 0.3641
  ES HALLMARK_HYPOXIA: 0.6294
  ES HALLMARK_IL2_STAT5_SIGNALING: 0.3402
  ES HALLMARK_INFLAMMATORY_RESPONSE: 0.2995
  ES HALLMARK_KRAS_SIGNALING_DN: 0.3965
  ES HALLMARK_MITOTIC_SPINDLE: 0.3104
  ES HALLMARK_MTORC1_SIGNALING: 0.2680
  ES HALLMARK_MYC_TARGETS_V1: −0.5426
  ES HALLMARK_MYC_TARGETS_V2: −0.6265
  ES HALLMARK_MYOGENESIS: 0.3657
  ES HALLMARK_OXIDATIVE_PHOSPHORYLATION: −0.3812
  ES HALLMARK_P53_PATHWAY: 0.3403
  ES HALLMARK_TNFA_SIGNALING_VIA_NFKB: 0.3199
  ES HALLMARK_UNFOLDED_PROTEIN_RESPONSE: −0.3254
  ES HALLMARK_UV_RESPONSE_DN: 0.3784
  ES HALLMARK_XENOBIOTIC_METABOLISM: 0.2890
  ES KEGG_DORSO_VENTRAL_AXIS_FORMATION: 0.6614
  ES KEGG_GLYCOLYSIS_GLUCONEOGENESIS: 0.5362
  ES KEGG_LEISHMANIA_INFECTION: 0.5017
  ES KEGG_REGULATION_OF_AUTOPHAGY: 0.5972
  ES KEGG_RENAL_CELL_CARCINOMA: 0.4210
  ES KEGG_STARCH_AND_SUCROSE_METABOLISM: 0.7356
  ES KEGG_TYPE_II_DIABETES_MELLITUS: 0.5316
  NES GO_ADP_METABOLIC_PROCESS: 2.1062
  NES GO_ATP_GENERATION_FROM_ADP: 2.0929
  NES GO_GLUCOSE_CATABOLIC_PROCESS: 2.1191
  NES GO_HEXOSE_CATABOLIC_PROCESS: 2.1301
  NES GO_MONOSACCHARIDE_CATABOLIC_PROCESS: 1.9771
  NES GO_NADH_METABOLIC_PROCESS: 2.0814
  NES GO_NEGATIVE_REGULATION_OF_FAT_CELL_DIFFERENTIATION: 1.9052
  NES GO_NUCLEOTIDE_PHOSPHORYLATION: 2.0727
  NES GO_PYRUVATE_METABOLIC_PROCESS: 2.1281
  NES GO_RESPONSE_TO_OXYGEN_LEVELS: 1.9612
  NES GO_RIBONUCLEOSIDE_DIPHOSPHATE_METABOLIC_PROCESS: 2.0919
  NES HALLMARK_ALLOGRAFT_REJECTION: 1.2241
  NES HALLMARK_ANDROGEN_RESPONSE: 1.3002
  NES HALLMARK_ANGIOGENESIS: −1.4124
  NES HALLMARK_APOPTOSIS: 1.6931
  NES HALLMARK_BILE_ACID_METABOLISM: 1.2479
  NES HALLMARK_CHOLESTEROL_HOMEOSTASIS: 1.9354
  NES HALLMARK_DNA_REPAIR: −1.7322
  NES HALLMARK_E2F_TARGETS: −1.7010
  NES HALLMARK_ESTROGEN_RESPONSE_LATE: 1.5630
  NES HALLMARK_FATTY_ACID_METABOLISM: 1.2729
  NES HALLMARK_GLYCOLYSIS: 1.8782
  NES HALLMARK_HEDGEHOG_SIGNALING: 1.3854
  NES HALLMARK_HEME_METABOLISM: 1.6288
  NES HALLMARK_HYPOXIA: 2.8139
  NES HALLMARK_IL2_STAT5_SIGNALING: 1.5174
  NES HALLMARK_INFLAMMATORY_RESPONSE: 1.2667
  NES HALLMARK_KRAS_SIGNALING_DN: 1.4318
  NES HALLMARK_MITOTIC_SPINDLE: 1.4709
  NES HALLMARK_MTORC1_SIGNALING: 1.2451
  NES HALLMARK_MYC_TARGETS_V1: −2.4192
  NES HALLMARK_MYC_TARGETS_V2: −2.2565
  NES HALLMARK_MYOGENESIS: 1.5149
  NES HALLMARK_OXIDATIVE_PHOSPHORYLATION: −1.6882
  NES HALLMARK_P53_PATHWAY: 1.5682
  NES HALLMARK_TNFA_SIGNALING_VIA_NFKB: 1.4745
  NES HALLMARK_UNFOLDED_PROTEIN_RESPONSE: −1.3390
  NES HALLMARK_UV_RESPONSE_DN: 1.6434
  NES HALLMARK_XENOBIOTIC_METABOLISM: 1.2573
  NES KEGG_DORSO_VENTRAL_AXIS_FORMATION: 1.9145
  NES KEGG_GLYCOLYSIS_GLUCONEOGENESIS: 1.8482
  NES KEGG_LEISHMANIA_INFECTION: 1.6760
  NES KEGG_REGULATION_OF_AUTOPHAGY: 1.7250
  NES KEGG_RENAL_CELL_CARCINOMA: 1.6054
  NES KEGG_STARCH_AND_SUCROSE_METABOLISM: 2.1177
  NES KEGG_TYPE_II_DIABETES_MELLITUS: 1.6335
